Assay results taken from PubChem BioAssay AID743395 (Broad Institute, 2014).

Tested on: HepG2 viability, CellTiter-Glo ATP luminescence, 72 h
Assay: HepG2 cell cytotoxicity, dose response, cytotoxicity control, CellTiter-Glo luminescence, cherry-pick, set 2 (AID 743395)

| Structure (SMILES) | AC35 |
| --- | --- |
| O=C1CN(S(=O)(=O)Cc2ccccc2)C[C@@H]2[C@@H](c3ccc(C#Cc4cccc(F)c4)cc3)[C@H](CO)N12 | 14.1 µM |
| Cc1occc1C(=O)N/N=C/c1c(O)ccc2ccccc12 | 6.44 µM |
| COC(=O)c1ccccc1-c1c2ccc(=N)cc-2oc2cc(N)ccc12 | 15.8 µM |
| CN1c2ccc(-c3ccc(F)cc3)cc2[C@H]2[C@H](CCN2S(=O)(=O)c2ccc(F)cc2)[C@@H]1CO | 20.9 µM |
| CC(=O)NC(c1ccc(C(C)C)cc1)c1ccc2cccnc2c1O (stereo not drawn) | 0.861 µM |
| Oc1ccc2ccccc2c1/C=C/c1ccc2c(Br)cc(Br)c(O)c2n1 | 9.42 µM |
| COc1ccc(OC)c(Nc2nc(-c3sc(NC(=O)C(C)(C)C)nc3C)cs2)c1 | 9.87 µM |
| O=C(c1ccc(Br)cc1)c1cc([N+](=O)[O-])ccc1N1CCOCC1 | 3.19 µM |
| COc1c(O)cc2c(c1OC)-c1ccc(OC)c(=O)cc1C(NC(C)=O)CC2 (stereo not drawn) | 0.453 µM |
| CNc1c2cccc(C)c2nc2c(C(=O)NCCN(C)C)cccc12 | 0.428 µM |
| COc1ccc(C2=Nn3c(nnc3-c3ccccc3F)SC2)cc1OC1CCOC1 (stereo not drawn) | 13.2 µM |
| CN(C)c1ccc(-[n+]2c(-c3ccccc3)cc(-c3ccccc3)cc2-c2ccccc2)cc1 | 3.01 µM |
| CC1=C/C(=C\C=C(C#N)C#N)N(C)c2ccccc21 | 21.3 µM |
| Brc1ccc2c(c1)C(C1=NCCN1)c1ccccc1CS2 (stereo not drawn) | 18.3 µM |
| O[Si](CCCN1CCCCC1)(c1ccc(F)cc1)C1CCCCC1 (stereo not drawn) | 10.3 µM |
| CCC1=C(CC2NCCc3ccccc32)CC2c3cc(OC)c(OC)cc3CCN2C1 (stereo not drawn) | 18.2 µM |
| CN(C)CCCNc1c2ccccc2nc2ccccc12 | 0.794 µM |
| CC(=NNC(=S)Nc1ccc(C)cc1)c1ccccn1 | 0.123 µM |
| COc1cccc(C(=O)Nc2sc3c(c2C#N)CCN(C(C)=O)C3)c1 | 11.6 µM |
| Cc1cc(NCc2ccccn2)n2nc(C)c(-c3ccccc3)c2n1 | 10 µM |
| O=C(O)c1ccccc1-c1c2cc(I)c(=O)c(I)c-2oc2c(I)c(O)c(I)cc12 | 8.34 µM |
| CN(C)CCNC(=O)c1ccc(Cl)c2cc3ccccc3nc12 | 2.59 µM |
| O=C1c2cccc(NCCCNCCO)c2C(=O)c2cccc(NCCCNCCO)c21 | 3.61 µM |
| CCCCNC(=O)C(=O)Nc1ccc2c(c1)N(S(=O)(=O)c1cccs1)CCC2 | 12.7 µM |
| Cc1ccc(C(=O)NC(=S)NNC(=O)c2ccccc2O)cc1 | 17.2 µM |
| CCc1cc(-c2nnn(CCC3COCCO3)c2CC)ccc1-c1cn(Cc2ccc3ccccc3c2)nn1 (stereo not drawn) | 15.8 µM |
| CC(C)CN(CCCNC(=O)CN1C(=O)CSc2ccc(S(=O)(=O)N3CCOCC3)cc21)CC(C)C | 6.21 µM |

| Structure (SMILES) | AC35 |
| --- | --- |
| Cc1nc(/N=C(\N)NC(=O)NC2CCCCC2)nc2ccccc12 | 20.2 µM |
| O=[N+]([O-])c1ccc(Sc2cccc[n+]2[O-])c2nonc12 | 5.72 µM |
| CCC1=Nc2cc(C(=O)NCC3CCCO3)ccc2Sc2ccc(Cl)cc21 (stereo not drawn) | 10.6 µM |
| CCOC(=O)N1CCC(NC(=O)c2ccc3c(c2)N=C(C)c2c(C)ccc(C)c2S3)CC1 | 2.44 µM |
| COCCNC(=O)c1cc(-c2ccc(-c3ccccc3)cc2)nc2ccccc12 | 17.9 µM |
| Oc1ccc2ccccc2c1C=NNc1ccccn1 | 7.59 µM |
| Cc1ccc(Nc2nc(-c3sc(C)nc3C)cs2)cc1 | 3.7 µM |
| NS(=O)(=O)c1ccc(S(=O)(=O)N(CCc2ccccc2)Cc2ccccn2)cc1 | 21.5 µM |
| O=c1cc(-c2ccc(O)c(O)c2)oc2cc(O)cc(O)c12 | 19 µM |
| COc1cccc2c1C(=O)c1c(O)c3c(c(O)c1C2=O)C[C@@](O)(C(C)=O)C[C@@H]3O[C@H]1C[C@H](N)[C@H](O)[C@H](C)O1 | 0.156 µM |
| C[C@@H]1CCCCO[C@H](CN(C)Cc2ccc(Cl)c(Cl)c2)[C@@H](C)CN([C@@H](C)CO)C(=O)c2cc(NS(=O)(=O)c3ccc(Cl)cc3)ccc2O1 | 10.6 µM |
| COc1ccc(NC(=O)c2nc(C)c(C3(C)CC(c4ccccc4)=NO3)s2)cc1 (stereo not drawn) | 17.1 µM |
| Cn1cccc1/C=C1\SC(=Nc2ccccc2)NC1=O | 4.22 µM |
| Cc1ccc(C)c(C2NC(=O)c3ccccc3N2)c1 (stereo not drawn) | 5.13 µM |
| CCOc1ccc(C(=O)O/N=C(\N)c2ccccn2)cc1 | 16.5 µM |
| O=C(NCc1ccccc1)C1Cc2c(-c3ccc(Cl)cc3)ccnc2O1 (stereo not drawn) | 9.8 µM |
| O=c1ccc2[n+]([O-])c3ccc(O)cc3oc-2c1 | 13.2 µM |
| COC1C(C)OC(OC2CC(C)(O)Cc3cc4c(c(O)c32)C(=O)c2c(O)cc3c(c2C4=O)OC2OC3(C)C(O)C(N(C)C)C2O)C(OC)C1(C)OC (stereo not drawn) | 5.03 µM |
| COc1ccc(S(=O)(=O)N2CC[C@@H]3[C@H](CO)N(C)c4ccc(-c5ccc(F)cc5)cc4[C@@H]32)cc1 | 2.21 µM |
| COc1ccc(S(=O)(=O)Nc2cccc3ccc(O)cc23)cc1 | 13.8 µM |
| CC(C)C[C@H]1CN([C@@H](Cc2ccc(O)cc2)CN2CCC[C@H]2CN2C(=O)C(=O)NC[C@@H]2Cc2ccccc2)C(=O)C(=O)N1CC1CCCCC1 | 15 µM |
| C=C1C(=O)[C@]23C[C@H]1CC[C@H]2[C@]1(C)[C@@H](OC(C)=O)CC[C@@](C)(C(=O)O)[C@H]1C[C@@H]3O | 11.3 µM |
| CCOc1cc(/C=N/NC(=O)N/N=C/c2ccc(O)c(OCC)c2)ccc1O | 20 µM |
| O=C1C=CC(O)(c2cc(=O)c3c(O)cc(O)cc3o2)C=C1 | 8.15 µM |
| COc1cccc(Sc2ccccc2/C=N/NC(N)=O)c1 | 9.98 µM |
| CCCC(=O)NC1=C(Cl)C(=O)c2ccccc2C1=O | 9.76 µM |
